Measurements as given in patent US20220047698A1, “SYNTHETIC INNATE IMMUNE RECEPTOR LIGANDS AND USES THEREOF” (ALBERTA RESEARCH CHEMICALS INC., priority 2018, published 2022).

Test system: BALB/c mice
Assay: Mouse immunization with OVA plus adjuvant combinations, serum IgG1 / IgG2a
Type: in vivo
Details: mice vaccinated with OVA and adjuvant combinations, subcutaneous, booster Day 21; for serum IgG1: FIG. 2; for serum IgG2a: FIG. 3
Description: Ability of compounds as vaccine adjuvants are assessed through their ability to induce robust immune responses in mice when administered along with a standard experimental antigen, OVA peptide, and compared the balance of Th1 and Th2 responses from their IgG1a and IgG2a responses as well as the cytokine production in mice. It is very common to see the antibody responses to many adjuvants but it is important to see the cellular responses as well which are used as therapeutic vaccines such as cancer vaccines.
Mouse Immunization: Groups of BALB/c mice were immunized with vaccine formulations wherein OVA (50 μg/dose) is combined with PZ (10 μg/dose), PIC (10 μg/dose), and adjuvant alone or in combination (20 μg/dose). In Trial 1, mice (n=8 per group) were immunized subcutaneously with 100 μl total volume with OVA alone, OVA+PZ/PI/52, OVA+52, or saline. In Trial 2, mice (n=8 per group) were immunized subcutaneously with 200 μl total volume with OVA alone, OVA+52, OVA+PZ+PIC, OVA+52+PZ+PI, OVA+(63+97) nanoparticles, or OVA+(52+63+97)nanoparticles, where the number refers to the compound number. The volume was doubled in Trial 2 because the (63+97)Np's were viscous and required more buffer to be easily injected. Mice received a booster immunization on Day 21. Blood was obtained on day 21, day 35 for both trials and 48 for trial 1 only. Mice were euthanized with isofluorane on Day 35 in Trial 2 and Day 48 in Trial 1. Spleens were isolated on day of euthanization.

SMILES | serum IgG1 | serum IgG2a
CSCC[C@H](NC=O)C(=O)N[C@@H](CC(C)C)C(=O)N[C@@H](Cc1ccccc1)C(=O)NCCNC(=O)[C@H](CCCCN)NC(=O)[C@H](CCCCN)NC(=O)[C@H](CCCCN)NC(=O)[C@H](CO)NC(=O)[C@H](CSCC(COC(=O)CCCCCCCCCCCC(C)C)OC(=O)CCCCCCCCCCCC(C)C)NC(=O)CCCCCCCCCCCC(C)C.Cl.Cl.Cl (stereo partly drawn) [Compound 52, TrilipoCys-Ser-Lys-Lys-Lys-NH—CH2-CH2-NH-F-L-Mf] | significant increased production | significant increased production
CC(=O)N[C@@H]1[C@@H](O[C@H](C)C(=O)N[C@@H](C)C(=O)N[C@@H](CCC(=O)O)C(N)=O)[C@H](O)[C@@H](COC(=O)CCCCCCCCCCCC(C)C)O[C@H]1O [Compound 63, (S)-4-((S)-2-((R)-2-(((2R,3R,4R,5S,6R)-3-acetamido-2,5-dihydroxy-6-(((13-methyltetradecanoyl)oxy)methyl)tetrahydro-2H-pyran-4-yl)oxy)propanamido)propanamido)-5-amino-5-oxopentanoic acid] | significant increased production | significant increased production
